Results taken from patent publication US10829473B2, “Modulators of the cystic fibrosis transmembrane conductance regulator protein and methods of use” (AbbVie Overseas S.Á.R.L., priority 2017, dated 2020).
Where two headings read alike, the source gives them in different places. Marks after values point to notes of the source that are not given here.

Target: T1, F508delCFTR (Homo sapiens, UniProt P13569, DEL508-508)
T1 construct: expressed in transfected cells; host or cells: CFBE41o- human lung derived epithelial cells (CFBE41o-F508delCFTR-HRP), doxycycline-inducible
T1 sequence (P13569 with tags, fused parts or gaps DEL508-508): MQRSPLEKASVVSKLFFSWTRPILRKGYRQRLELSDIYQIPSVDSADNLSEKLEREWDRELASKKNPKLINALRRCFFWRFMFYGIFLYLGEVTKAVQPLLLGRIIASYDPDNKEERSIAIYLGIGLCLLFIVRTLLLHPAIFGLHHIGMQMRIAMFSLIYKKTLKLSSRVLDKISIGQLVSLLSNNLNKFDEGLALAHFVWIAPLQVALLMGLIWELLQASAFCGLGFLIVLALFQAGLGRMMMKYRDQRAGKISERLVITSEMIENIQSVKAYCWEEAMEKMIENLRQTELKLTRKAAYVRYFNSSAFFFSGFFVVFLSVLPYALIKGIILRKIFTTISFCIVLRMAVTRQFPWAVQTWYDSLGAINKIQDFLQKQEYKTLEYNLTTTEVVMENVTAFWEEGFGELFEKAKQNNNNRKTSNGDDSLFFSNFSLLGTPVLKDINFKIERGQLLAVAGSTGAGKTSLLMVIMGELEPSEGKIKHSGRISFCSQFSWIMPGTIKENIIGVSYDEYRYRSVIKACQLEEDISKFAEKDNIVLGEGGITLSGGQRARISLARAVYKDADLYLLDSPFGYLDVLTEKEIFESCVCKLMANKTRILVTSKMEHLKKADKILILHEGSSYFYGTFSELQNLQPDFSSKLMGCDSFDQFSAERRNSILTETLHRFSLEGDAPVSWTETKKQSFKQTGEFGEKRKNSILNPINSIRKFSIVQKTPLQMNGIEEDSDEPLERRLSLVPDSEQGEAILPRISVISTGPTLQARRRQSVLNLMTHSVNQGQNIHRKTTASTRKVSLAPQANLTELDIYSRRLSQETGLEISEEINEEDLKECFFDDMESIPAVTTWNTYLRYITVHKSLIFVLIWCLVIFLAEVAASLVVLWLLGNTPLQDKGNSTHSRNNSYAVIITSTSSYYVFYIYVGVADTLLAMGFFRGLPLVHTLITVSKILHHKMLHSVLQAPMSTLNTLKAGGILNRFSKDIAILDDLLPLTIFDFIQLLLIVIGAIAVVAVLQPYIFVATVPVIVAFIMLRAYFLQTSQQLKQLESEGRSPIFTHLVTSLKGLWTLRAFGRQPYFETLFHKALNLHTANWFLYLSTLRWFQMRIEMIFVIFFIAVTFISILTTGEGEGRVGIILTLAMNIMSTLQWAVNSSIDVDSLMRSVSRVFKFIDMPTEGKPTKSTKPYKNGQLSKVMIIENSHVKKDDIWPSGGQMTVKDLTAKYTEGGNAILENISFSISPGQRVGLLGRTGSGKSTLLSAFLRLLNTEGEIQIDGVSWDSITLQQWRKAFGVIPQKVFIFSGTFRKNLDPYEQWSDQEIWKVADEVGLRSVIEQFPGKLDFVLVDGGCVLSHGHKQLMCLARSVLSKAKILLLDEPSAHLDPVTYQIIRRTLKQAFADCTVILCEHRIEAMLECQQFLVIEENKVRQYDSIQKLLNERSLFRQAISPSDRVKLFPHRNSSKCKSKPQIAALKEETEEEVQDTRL
Assay: Cell Surface Expression-Horse Radish Peroxidase (CSE-HRP) Assay;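 for EC50 (with co-corrector): co-corrector chromenyl benzoic acid corrector at 2 or 3 µM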;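 for Maximum % activity (without co-corrector): % of on-plate positive control chromenyl benzoic acid corrector at 2 or 3 µM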
Assay type: cell-based
Details: for Maximum % activity (with co-corrector) / Emax: maximum at any tested concentration; for Emax: read-out: Maximum % activity (without co-corrector)
Summary of the method: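 Corrector compounds were given as 8-point 3-fold series from 20 or 30 μM, with or without a 2 μM co-corrector, for 18-24 h at 33 °C. Surface HRP was read by luminol luminescence as % of positive control; variable-Hill-slope sigmoidal fitting gave EC50 from triplicate plates.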

[1] = test compound alone, without co-corrector, read-out: EC50 (without co-corrector)
[2] = with co-corrector, read-out: EC50 (with co-corrector)
[3] = test compound with co-corrector
[4] = test compound with co-corrector, read-out: EC50 (with co-corrector)
[5] = test compound without co-corrector
[6] = test compound without co-corrector, read-out: EC50 (without co-corrector)

| EC50 [1] [µM] | Maximum % activity (with co-corrector) (with co-corrector) | EC50 [2] [µM] | Emax (without co-corrector) [%] | Maximum % activity (with co-corrector) [3] | EC50 [4] [µM] | Emax [5] [%] | EC50 [6] [µM] | EC50 (with co-corrector) [3] | EC50 (without co-corrector) [5] | SMILES |
| --- | --- | --- | --- | --- | --- | --- | --- | --- | --- | --- |
| < 3 | +++ (≥350) | < 3 | > 150 | – | – | – | – | – | – | COc1cc(C2(C(=O)NS(=O)(=O)c3cccc4nc(N)ccc34)CC2)c(OCC(C)C)cn1 [Example I-92, N-(2-aminoquinoline-5-sulfonyl)-1-[2-methoxy-5-(2-methylpropoxy)pyridin-4-yl]cyclopropane-1-carboxamide] |
| < 3 | +++ (≥350) | < 3 | > 150 | – | – | – | – | – | – | Cc1ccc(C)c(C2(C(=O)NS(=O)(=O)c3cccc4ncccc34)CC2)c1 [II-61] |
| 3 to 10 | +++ (≥350) | 3 to 10 | 50 to 150 | – | – | – | – | – | – | COc1ccc(C2COC2)cc1C1(C(=O)NS(=O)(=O)c2cccc3ncccc23)CC1 [Example I-90, 1-[2-methoxy-5-(oxetan-3-yl)phenyl]-N-(quinoline-5-sulfonyl)cyclopropane-1-carboxamide] |
| < 3 | +++ (≥350) | < 3 | > 150 | – | – | – | – | – | – | COc1ccc(C)c(OC)c1C1(C(=O)NS(=O)(=O)c2cccc3nc(C)ccc23)CC1 [Example I-43, 1-(2,6-dimethoxy-3-methylphenyl)-N-(2-methylquinoline-5-sulfonyl)cyclopropane-1-carboxamide] |
| < 3 | +++ (≥350) | < 3 | > 150 | – | – | – | – | – | – | CCc1ccc(O[C@H]2CCOC2)c(C2(C(=O)NS(=O)(=O)c3cccc4ncccc34)CC2)c1 [Example I-117, 1-(5-ethyl-2-{[(3S)-oxolan-3-yl]oxy}phenyl)-N-(quinoline-5-sulfonyl)cyclopropane-1-carboxamide] |
| – | – | – | – | + (<150) | > 10 | < 50 | > 10 | – | – | CCc1cnc(N2CCN(C)CC2)c(C2(C(=O)NS(=O)(=O)c3cccc4ncccc34)CC2)c1 [GIII-33] |
| – | – | – | – | + (<150) | > 10 | < 50 | > 10 | – | – | CC(C)Oc1ncc(CO)cc1C1(C(=O)NS(=O)(=O)c2cccc3ncccc23)CC1 [GIII-35] |
| < 3 | +++ (≥350) | < 3 | > 150 | – | – | – | – | – | – | COCC(C)(C)c1ccc(OC)c(C2(C(=O)NS(=O)(=O)c3cccc4ncccc34)CC2)c1 [Example I-110, 1-[2-methoxy-5-(1-methoxy-2-methylpropan-2-yl)phenyl]-N-(quinoline-5-sulfonyl)cyclopropane-1-carboxamide] |
| < 3 | +++ (≥350) | < 3 | > 150 | – | – | – | – | – | – | CCCc1nc(C(F)(F)F)ccc1C1(C(=O)NS(=O)(=O)c2cccc3c2CCCN3)CC1 [Example GI-8, 1-[2-propyl-6-(trifluoromethyl)pyridin-3-yl]-N-(1,2,3,4-tetrahydroquinoline-5-sulfonyl)cyclopropane-1-carboxamide] |
| – | – | – | – | +++ (≥350) | < 3 | > 150 | < 3 | – | – | CC(C)COc1ccc(OC(C)C)c(C2(C(=O)NS(=O)(=O)c3cccc4ncccc34)CC2)n1 [Example GI-86, 1-{6-(2-methylpropoxy)-3-[(propan-2-yl)oxy]pyridin-2-yl}-N-(quinoline-5-sulfonyl)cyclopropane-1-carboxamide] |
| – | – | – | – | ++ (≥150 and <350) | – | 50 to 150 | – | ++^a | ++^a | CCc1ccncc1C1(C(=O)NS(=O)(=O)c2cccc3ccccc23)CC1 [GII-20, 1-(4-ethylpyridin-3-yl)-N-(naphthalene-1-sulfonyl)cyclopropane-1-carboxamide] |
| 3 to 10 | +++ (≥350) | < 3 | > 150 | – | – | – | – | – | – | COc1c(C)cccc1C1(C(=O)NS(=O)(=O)c2cccc3ncccc23)CC1 [II-64] |
| > 10 | ++ (≥150 and <350) | 3 to 10 | < 50 | – | – | – | – | – | – | O=C(NS(=O)(=O)CCCCl)C1(c2ccc(Cl)cc2Cl)CC1 [Example III-108, N-(3-chloropropane-1-sulfonyl)-1-(2,4-dichlorophenyl)cyclopropane-1-carboxamide] |
| 3 to 10 | +++ (≥350) | 3 to 10 | 50 to 150 | – | – | – | – | – | – | O=C(NS(=O)(=O)c1ccccc1)C1(c2ccc(Cl)cc2Cl)CC1 [Example III-3, N-(benzenesulfonyl)-1-(2,4-dichlorophenyl)cyclopropane-1-carboxamide] |
| < 3 | +++ (≥350) | < 3 | > 150 | – | – | – | – | – | – | COc1ccc(C)c(C)c1C1(C(=O)NS(=O)(=O)c2cccc3c2CCCN3)CC1 [II-36] |
| – | – | – | – | +++ (≥350) | < 3 | > 150 | 3 to 10 | – | – | Cc1cnc(OC(C)C)c(C2(C(=O)NS(=O)(=O)c3cccc4[nH]ccc34)CC2)c1 [Example GI-59, N-(1H-indole-4-sulfonyl)-1-{5-methyl-2-[(propan-2-yl)oxy]pyridin-3-yl}cyclopropane-1-carboxamide] |
| 3 to 10 | +++ (≥350) | < 3 | > 150 | – | – | – | – | – | – | COc1ccc(C2CCC2)cc1C1(C(=O)NS(=O)(=O)c2cccc3c2CCCN3)CC1 [Example I-16, 1-(5-cyclobutyl-2-methoxyphenyl)-N-(1,2,3,4-tetrahydroquinoline-5-sulfonyl)cyclopropane-1-carboxamide] |
| < 3 | +++ (≥350) | < 3 | > 150 | – | – | – | – | – | – | CCOc1ccc(C(C)(C)OC)cc1C1(C(=O)NS(=O)(=O)c2cccc3nc(C)ccc23)CC1 [Example I-104, 1-[2-ethoxy-5-(2-methoxypropan-2-yl)phenyl]-N-(2-methylquinoline-5-sulfonyl)cyclopropane-1-carboxamide] |
| < 3 | +++ (≥350) | < 3 | > 150 | – | – | – | – | – | – | COc1ccc(C(C)C)cc1C1(C(=O)NS(=O)(=O)c2cccc3c2CCCN3)CC1 [II-26] |
| < 3 | +++ (≥350) | < 3 | > 150 | – | – | – | – | – | – | COc1cccc(C2CCC2)c1C1(C(=O)NS(=O)(=O)c2cccc3ncccc23)CC1 [Example I-51, 1-(2-cyclobutyl-6-methoxyphenyl)-N-(quinoline-5-sulfonyl)cyclopropane-1-carboxamide] |
| 3 to 10 | +++ (≥350) | 3 to 10 | 50 to 150 | – | – | – | – | – | – | COc1ccccc1C1(C(=O)NS(=O)(=O)c2ccccc2C)CC1 [Example III-85, 1-(2-methoxyphenyl)-N-(2-methylbenzene-1-sulfonyl)cyclopropane-1-carboxamide] |
| 3 to 10 | +++ (≥350) | < 3 | > 150 | – | – | – | – | – | – | COc1ccc(C(C)OC)cc1C1(C(=O)NS(=O)(=O)c2cccc3ncccc23)CC1 (centres unmarked) [II-87] |
| – | – | – | – | + (<150) | > 10 | < 50 | > 10 | – | – | COc1ncc(C2(C(=O)NS(=O)(=O)c3cccc4ncccc34)CC2)c(OC)n1 [GIII-24] |
| > 10 | ++ (≥150 and <350) | 3 to 10 | < 50 | – | – | – | – | – | – | O=C(NS(=O)(=O)c1ccccc1)C1(c2ccccc2F)CC1 [Example III-30, N-(benzenesulfonyl)-1-(2-fluorophenyl)cyclopropane-1-carboxamide] |
| < 3 | +++ (≥350) | < 3 | > 150 | – | – | – | – | – | – | CCOc1ccc(OC)c(C2(C(=O)NS(=O)(=O)c3cccc4nc(C)ccc34)CC2)c1 [Example I-69, 1-(5-ethoxy-2-methoxyphenyl)-N-(2-methylquinoline-5-sulfonyl)cyclopropane-1-carboxamide] |
| > 10 | ++ (≥150 and <350) | > 10 | < 50 | – | – | – | – | – | – | O=C(NS(=O)(=O)Cc1ccccc1)C1(c2ccccc2F)CC1 [Example III-35, 1-(2-fluorophenyl)-N-(phenylmethanesulfonyl)cyclopropane-1-carboxamide] |
| 3 to 10 | +++ (≥350) | < 3 | > 150 | – | – | – | – | – | – | Cc1ccc2c(S(=O)(=O)NC(=O)C3(c4cc(C5CCC5)ncc4OC(C)C)CC3)cccc2n1 [Example GI-26, 1-{2-cyclobutyl-5-[(propan-2-yl)oxy]pyridin-4-yl}-N-(2-methylquinoline-5-sulfonyl)cyclopropane-1-carboxamide] |
| – | – | – | – | +++ (≥350) | < 3 | > 150 | 3 to 10 | – | – | CCc1cnc(N2CCC(COC)CC2)c(C2(C(=O)NS(=O)(=O)c3cccc4[nH]ccc34)CC2)c1 [Example GI-120, 1-{5-ethyl-2-[4-(methoxymethyl)piperidin-1-yl]pyridin-3-yl}-N-(1H-indole-4-sulfonyl)cyclopropane-1-carboxamide] |
| – | – | – | – | ++ (≥150 and <350) | 3 to 10 | 50 to 150 | – | – | ++^a | CC(C)Oc1ccc(C2(C(=O)NS(=O)(=O)c3cccc4ncccc34)CC2)c(N(C)C)n1 [GII-51, 1-{2-(dimethylamino)-6-[(propan-2-yl)oxy]pyridin-3-yl}-N-(quinoline-5-sulfonyl)cyclopropane-1-carboxamide] |
